Data: patent US20090232793A1, “Elastase inhibitor and acute leukemia” (YEDA RESEARCH AND DEVELOPEMENT CO., LTD., priority 2004, published 2009)
The star is where a group is joined. MeOSuc = COC(=O)CCC(=O)*; CH2Cl = ClC*

Tests used:
[1] = test system: AML cells, primary and cell lines; assay: in vitro transwell migration assay of AML cells; assay type: cell-based, human; settings: for spontaneous migration: in absence of SDF-1, 30 min pre-treatment, data not shown
Procedure: (§1) (A) In vitro transwell migration assay of AML cells, either untreated or treated for 30 minutes with elastase inhibitor, 10 μg/ml EI (MeOSuc-AAPV-CMK) (A), anti elastase Abs (B) or a1-antitrypsin (a1-AT) (C). […] (D) Immunocytochemical analysis of primary AML cells on poly-L-lysine coated surfaces. Cells were pre-treated for 30 minutes with elastase inhibitor (EI) or left untreated, allowed to adhere in the absence (−) or presence of 200 ng/ml SDF-1, fixed and indirectly immunolabeled with anti-CXCR4 and anti-elastase Ab. Original magnification 100×.
Elastase inhibitor decreases SDF-1 induced migration of AML cells. To study the role of elastase in migration of AML cells, we evaluated the effect of elastase inhibition on spontaneous, or SDF-1-induced AML migration by in vitro transwell assay. The migration assay was carried out as follows: a total of […] RPMI supplemented with 10% FCS in the presence or absence of 125 ng/mL recombinant human SDF-1 (rhSDF-1) (Peprotech, Rocky Hill, N.J.) was added to the lower chamber of a Costar 24-well transwell plates with […] pore filters (Corning, N.Y.). One hundred thousand primary MNC leukemic cells or AML cell lines with or without pretreatment for 30 min. with elastase inhibitor (EI) MeOSuc-AAPV-CMK (10 μg/ml Calbiochem, La jolla, Calif.) or monoclonal mouse anti human neutrophil elastase Ab (50-100 ul of 70 μg/ml, Dako, Glostrup, Denmark) were added to the upper chamber and were allowed to migrate to the lower chamber for 4 hours at 37° C. Migrating cells were collected from the lower chamber and counted using a FACSCalibur (Becton Dickinson).

AML CXCR4 expression = assay: cell surface CXCR4 expression on AML cells by FACS; assay type: cell-based, human; settings: data not shown
Description: To test whether the decreased migration by elastase inhibition is eventually due to reduction in CXCR4 expression, we examined the effect of elastase inhibition on AML CXCR4 expression. […] Thus, it appears that the role of elastase in migration of AML cells is not working via CXCR4 regulation.

primary AML cells [2] = assay: immunocytochemical analysis of protrusions and cell polarization on poly-L-lysine; assay type: cell-based, human
Procedure: as §1
When leukemic cells were pre-treated with elastase inhibitor (EI), the formation of SDF-1 induced protrusions was prevented (FIG. 3D). Of note, basal cell polarization in absence of SDF-1 was also abolished by EI.

primary human AML cells = assay: homing of human AML cells to the BM of B2nmull NOD/SCID mice; assay type: in vivo; settings: for homing into the NOD/SCID mice BM: 30 min incubation with EI 10 μg/ml before injection, 16 hours
Procedure: In order to assess the effect of elastase inhibition on the in vivo migration (or homing) of human AML cells to the BM, primary AML mononuclear cells (MNC) cells (5×10^6) were injected into sublethally irradiated B2nmull NOD/SCID mice, either untreated or after 30 minute incubation with EI […].
(§2) More specifically, human primary AML MNC, enriched CD34+ AML or CB cells at the indicated cell doses were suspended in […] RPMI with 10% FCS incubated for 30 minutes in 37° C. either with or without elastase inhibitor (10 μg/ml) before injection to mice via the dorsal tail vein. Mice were sacrificed 16 hours after transplantation, BM cells flushed from both femurs and tibias bones were harvested and resuspended into single-cell suspension. The percentage of human cells was determined by immunostaining with anti-human CD45-FITC mAB (Immuno Quality Products, Groningen, The Netherlands). Human Fc receptors were blocked with human plasma (1%) and murine Fc receptors by anti-mouse CD16-CD32 (Pharmingen) (1:50). Isotype control antibodies were used in order to exclude false positive cells (BD). After staining, the cells were analyzed on a FACS Calibur (BD) using Cell Quest software.

[3] = test system: normal CB enriched CD34+ cells; assay: homing of normal CB CD34+ cells to the BM of B2nmull NOD/SCID mice; assay type: in vivo; settings: normal human CD34+ enriched cells; EI pre-treated 10 μg/ml; vs untreated cells
Procedure: as §2
We next examined the homing of normal enriched CD34+ cells after elastase inhibition. In order to analyze similar primitive stem cell populations, CB CD34+ cells were compared to primary enriched CD34+ AML cells of three other patients (1.5-3×10^6) with different FAB subtypes. As with MNC cells from some patients, inhibition of primary enriched CD34+ AML cells was observed. […]

[4] = test system: human primary AML MNC cells; assay: egress of engrafted primary AML cells from BM into the circulation of NOD/SCID mice; assay type: in vivo; settings: for BM (%) human CD45+ cells / PB (%) human CD45+ cells / PB/BM: EI 1 mg x 4 days
Procedure: In order to test this assumption, primary AML cells (20-40×10^6) were injected into sublethally irradiated NOD/SCID mice to establish human AML-mice chimerism and AML egress from the bone marrow into the circulation was monitored, two-four weeks later, in mice treated with elastase inhibitor as compared to non treated mice.
(§3) More specifically, human primary AML MNC cells (10-30×10^6) or HL60 AML cell line (20×10^6) was injected into NOD/SCID mice. Two-four weeks later, EI (1 mg) was injected once a day for 4 consecutive days. PB from mice asphyxiated with dry ice was collected by cardiac aspiration in heparinized tubes and BM was collected as mentioned above. Percentage of human cells was determined by immunofluorescence for CD45 as described above.

HL60 AML cell line = assay: egress of engrafted HL60 cells from BM into the circulation of NOD/SCID mice; assay type: in vivo, human
Procedure: as §3

ML-2 = assay: proliferation, viable cells by trypan blue exclusion; assay type: cell-based, human; settings: ML2; EI 10 μg/ml; 7 days in culture
Procedure: (§4) To test the role of elastase in proliferation of AML cells, primary AML cells (1×10^6/ml), AML cell lines (1×10^4/ml) or normal CD34+ enriched cord blood (CB) cells (1×10^5/ml) were grown in RPMI supplemented with 10% FCS with or without elastase inhibitor (10 μg/ml). The number of viable cells was determined on days 0, 1, 3, 5 and 7 using trypan blue exclusion.
(§5) The effect of EI on the proliferative rate of primary MNC AML cells and AML cell lines (ML-2, U937) was evaluated after 3-7 days respectively in culture. […] After 7 days in culture the number of ML2 and U937 was increased and cell proliferation was inhibited by culturing cells in the presence of EI (FIG. 6A).

U937 = assay: as above; assay type: cell-based, human; settings: EI 10 μg/ml, 7 days in culture
Procedure: as §4, §5

primary AML cells [5] = assay: as above; assay type: cell-based, human; settings: primary MNC AML cells; EI 10 μg/ml; 3 days in culture
Procedure: as §4, §5

[6] = test system: normal CD34+ enriched cord blood (CB) cells; assay: proliferation and CD34+/38- percentage of normal cord blood cells; assay type: cell-based, human
Procedure: Primary AML cells, AML cell lines and human cord blood (CB) cells with or without 10 μg/ml elastase inhibitor (EI), were cultured for 3-7 days and the number of viable cells was determined using trypan blue exclusion (A). Enriched CD34+ CB cells from full term deliveries were grown in RPMI/10% FCS with SCF, FLT3L and IL6. The percentage of CD34+/38− cells from the total enriched CD34+ CB cells cultured with and without EI was determined by FACS (B).
as §4

normal CB CD34+ cells = assay: cell surface elastase expression by FACS after SDF-1; assay type: cell-based, human; settings: SDF-1 200 ng/ml for 1 and 3 hours
Procedure: (§6) Cell surface elastase on primary AML and cell lines or on normal CB CD34+ enriched cells was analyzed by flow cytometry as follows: AML cells were incubated with polyclonal rabbit anti-human elastase (Biodesign, Kennebunkport, Me.) for 30 min., washed and antibody binding was detected using secondary anti-rabbit-FITC (FIG. 2A upper panel and 2B).
(§7) In order to confirm our assumption, primary AML cells and normal CB CD34+ cells were treated with SDF-1 (200 ng/ml) for 1 and 3 hours, and expression of cell surface elastase was determined by FACS (FIG. 7).

primary AML cells [7] = assay: as above; assay type: cell-based, human; settings: SDF-1 200 ng/ml for 1 and 3 hours
Procedure: as §6, §7

Substance: MeOSuc-AAPV-CH2Cl [EI]
- spontaneous migration [1]: also reduced
- SDF-1 dependent migration of the cells ([1]; pre-incubation 30 min with 5-10 μg/ml EI, toward 125 ng/ml SDF-1, 4 hours, p=0.039): significantly reduced
- level of cell surface CXCR4 expression (AML CXCR4 expression): did not change
- formation of SDF-1 induced protrusions (primary AML cells [2]; 30 min pre-treatment, 200 ng/ml SDF-1): prevented
- basal cell polarization (primary AML cells [2]; in absence of SDF-1): abolished
- homing into the NOD/SCID mice BM (primary human AML cells; M2 and M4 primary AML cells, vs untreated cells): significantly decreased
- homing to the murine BM (primary human AML cells; enriched CD34+ AML progenitors, EI pre-treated 10 μg/ml, vs untreated cells): decreased
- homing into the NOD/SCID mice BM (primary human AML cells; primary M1 and M5 AML cells): not inhibited but rather increased
- homing to the murine BM [3]: increased
- AML cell egress to the PB ([4]; human primary cells, EI 1 mg once a day, 4 consecutive days, vs untreated mice): decreased
- BM (%) human CD45+ cells ([4]; patient #1 M2): 80%
- PB (%) human CD45+ cells ([4]; patient #1 M2): 6%
- PB/BM ([4]; patient #1 M2): 0.07
- BM (%) human CD45+ cells ([4]; patient #2 M4): 50%
- PB (%) human CD45+ cells ([4]; patient #2 M4): 2.5%
- PB/BM ([4]; patient #2 M4): 0.05
- BM (%) human CD45+ cells ([4]; patient #3 M4): 12.7%
- PB (%) human CD45+ cells ([4]; patient #3 M4): 0.5%
- PB/BM ([4]; patient #3 M4): 0.039
- BM (%) human CD45+ cells ([4]; patient #4): 16.9%
- PB (%) human CD45+ cells ([4]; patient #4): 0.25%
- PB/BM ([4]; patient #4): 0.014
- BM (%) human CD45+ cells (HL60 AML cell line; HL-60, EI 1 mg x 4 days): 4%
- PB (%) human CD45+ cells (HL60 AML cell line; HL-60, EI 1 mg x 4 days): 2.4%
- PB/BM (HL60 AML cell line; HL-60, EI 1 mg x 4 days): 0.6
- AML cell egress to the PB (HL60 AML cell line; human AML line, EI 1 mg once a day, 4 consecutive days, vs untreated mice): decreased
- cell proliferation (ML-2): inhibited
- cell proliferation (U937): inhibited
- number of viable AML cells (primary AML cells [5]): significantly decreased
- percentage of primitive progenitor cells CD34+/38− ([6]; 3 days in culture in the presence of cytokines (SCF, FLT3L, IL6) and EI): significantly increased
- proliferation rate ([6]; normal CB CD34+ cells, EI 10 μg/ml): enhanced

Substance: SDF-1: chemokine, also called pre-B-cell growth-stimulating factor; recombinant human SDF-1 (Peprotech)
- cell surface elastase expression (normal CB CD34+ cells): decreases
- cell surface elastase expression (primary AML cells [7]): increase

Substance: a1-antitrypsin
- spontaneous migration [1]: affected
